Assay results from US20240425857A1, “Means and Methods for Chronic Wound Healing” (VIB VZW, priority 2021, published 2024).
Entries after “also recorded” stand apart in the source; their conditions may differ.

Key:
dendritic cells (BMDC) = assay: Efferocytosis assay: dendritic cells incubated with apoptotic Jurkat cells (flow cytometry or Incucyte live-cell imaging); format: cell-based, mouse; details: apoptotic Jurkat targets; for erastin-dependent increase in efferocytosis by dendritic cells: inhibitor given together with 5 μM erastin; for efferocytosis (apoptotic cell uptake) by dendritic cells: 1:5 phagocyte:target ratio, cells pretreated 1 hour with the substance
Description: (§1) Efferocytosis assays. For induction of apoptosis, human Jurkat T cells were with stained with CypHerSE (#PA15401, GE Healthcare) or TAMRA (#C-1171, Invitrogen) or pHrodo™ Green STP Ester (#P35369, ThermoFisher), resuspended in RPMI with 5% fetal calf serum, treated with 150 mJ/cm^2 ultraviolet C irradiation (Stratalinker) and incubated for 4 h at 37° C. with 5% CO2. Dendritic cells were incubated with apoptotic targets at a 1:5 phagocyte: target ratio for the indicated times. Phagocytosis was assessed by a flow cytometry-based assay^21 or by Incucyte Live-cell imaging. As alternative targets for phagocytosis, dendritic cells were incubated with pHrodo™ Green E. coli BioParticles™ (#P35366, ThermoFisher) or Streptavidin Fluoresbrite® YG Microspheres, 2.0 μm (for simplicity, beads) at a 1:5 phagocyte: target ratio for the indicated times. When applicable, cells were pretreated for 1 hour with 5 μM erastin (#S7242, Bio-Connect B.V), 200 μM CP-91149 (#S2717, Bio-Connect B.V.), 0.2 mM 2-DG (2-Deoxy-D-glucose; #D8375-1G, Sigma), 5 μM UK5099 (#PZ0160, Sigma), 40 μM DON (6-Diazo-5-oxo-L-norleucine; #D2141-5 MG, Sigma), 10 μM 3-BP (3-Bromo-2-oxopropionic acid, #376817-M, Sigma), 10 mM Glutamate (#6106 Apr. 3, Sigma) before addition of targets.

dendritic cells [1] = assay: Determination of glycogen concentration in dendritic cells; format: cell-based, mouse; details: CP-91149 added to erastin-treated BMDC
Description: Determination of glycogen concentration. The glycogen concentration was measured using a Glycogen Colorimetric/Fluorometric Assay Kit (#GENT-K646-10, BioVision) according to the manufacturer's instructions.

db/db mice = assay: Full-thickness skin wounding, wound healing in diabetic db/db mice; format: in vivo, mouse; details: no apoptotic cell co-administration
Text: (§2) Skin wounding and erastin regimen. Full-thickness wounds were made as previously described^65.56 Briefly, wounds were made on shaved back skin by using 8-mm punch biopsy needles (Stiefel Instruments) under analgesia and general anesthesia in 8-week-old female C57BL/6J, B6.BKS (D)-Leprdb/J (db/db), GDF15KO, Slc7a11KO and control littermates. For wound healing experiments, assuming standard deviations of 10-15%, an experimental group of n=10 is needed to obtain statistical power of 90% (significance level 0.05) and detect a difference between means of 20%, using two-tailed paired T-testing. No animals were excluded from any experiment.
(§3) For topical applications, mice were intradermally injected with Imidazole ketone erastin (IKE at 20 mg kg^−1 in 100 μl PBS; MedChemExpress, #HY-114481) or recombinant human GDF-15 (0.7 mg kg^−1 in 100 μl PBS; R&D Systems, #9279-GD-050) or RSL3 (20 mg kg-1 in 100 μl PBS; Sellechem, #S8155) or the respective vehicle controls (DMSO or 4 mM HCl in 100 μl PBS) at the time of wounding and for two consecutive days. For the experiments indicated as ‘erastin regimen’ or vehicle regimen, 5 million apoptotic Jurkat cells were administrated once on day 0 in 50 μl PBS on top of back skin immediately after full-thickness excision biopsy. For the mice injected intradermally with supernatants from efferocytic dendritic cells, supernatants from dendritic cells cultured with apoptotic Jurkat cells for 16 h were collected, centrifuged to eliminate debris and frozen or lyophilized for preservation.

C57BL/6J mice = assay: Full-thickness skin wounding (8-mm punch biopsy), wound healing in wild-type mice; format: in vivo, mouse
Text: as §2
as §3, with “For the mice injected intradermally with supernatants from efferocytic dendritic cells, supernatants from dendritic cells cultured with apoptotic Jurkat cells for 16 h were collected, centrifuged to eliminate debris and frozen or lyophilized for preservation.” left out

[2] = tested on: Slc7a11-deficient dendritic cells; assay: Efferocytosis by Slc7a11-deficient (Slc7a11 KO) dendritic cells; format: cell-based, mouse; details: Slc7a11 KO BMDC, apoptotic Jurkat targets
Description: as §1

dendritic cells [3] = format: cell-based, mouse
Text: FIG. 6D, Assessment of erastin drug cytotoxicity in dendritic cells by measuring Sytox Green fluorescence.
FIG. 9B, Assessment of cytotoxicity of drugs tested on dendritic cells by measuring Sytox Green fluorescence.

For `O=CC[C@@H](O)[C@H](O)[C@H](O)CO` [2-DG, 2-Deoxy-D-glucose], the “erastin-dependent increase in efferocytosis by dendritic cells” value (“erastin-dependent increase” for short) (dendritic cells (BMDC)) was “abrogated the enhanced efferocytosis due to Slc7a11 inhibition”.

With `O=C(O)C(=O)CBr` [3-BP, 3-Bromo-2-oxopropionic acid] the “erastin-dependent increase” value (dendritic cells (BMDC)) was “dampened the enhanced inhibition due to erastin treatment”.

For `CN(C)C(=O)[C@H](O)[C@H](Cc1ccccc1)NC(=O)c1cc2cc(Cl)ccc2[nH]1` [CP-91149], the “erastin-dependent increase” value (dendritic cells (BMDC)) was “strongly abrogated the erastin-dependent increase in efferocytosis” and the “glycogen levels in erastin-treated BMDC” value (dendritic cells [1]) was “reversed the glycogen levels in erastin-treated BMDC almost to DMSO control”.

In the case of `[N-]=[N+]=CC(=O)CC[C@H](N)C(=O)O` [DON, 6-Diazo-5-oxo-L-norleucine], the “erastin-dependent increase” value (dendritic cells (BMDC)) is reported as “marginally decreased the erastin-mediated augmented efferocytosis”.

With `CC(C)Oc1ccc(C(=O)Cn2ccnc2)cc1-n1c(CN2CCN(C(=O)COc3ccc(Cl)cc3)CC2)nc2ccccc2c1=O` [IKE, Imidazole ketone erastin] the “diabetic wound healing, substance alone” value (db/db mice) was “improves skin wound healing in diabetic mice” and the “wound healing, substance alone” value (C57BL/6J mice; full-thickness wound, no co-treatment) was “did not improve wound healing”.

`COc1ccc(N(C(=O)CCl)C(C(=O)NCCc2ccccc2)c2cccs2)cc1Cl` (stereo not drawn) [ML-162] was tested, and the “efferocytosis (apoptotic cell uptake) by dendritic cells” value (dendritic cells (BMDC)) was “did not enhance efferocytosis; also recorded: does not enhance efferocytosis by dendritic cells”.

For `COC(=O)c1ccc([C@@H]2c3[nH]c4ccccc4c3C[C@@H](C(=O)OC)N2C(=O)CCl)cc1` [RSL3], the “wound healing, given with apoptotic cells at day 0” value (C57BL/6J mice; apoptotic Jurkat cells once on day 0, drug from day 0 to day 2) was “did not improve wound healing”.

In the case of `N#C/C(=C\c1cn(-c2ccccc2)c2ccccc12)C(=O)O` [UK5099], the “erastin-dependent increase” value (dendritic cells (BMDC)) is reported as “had no impact on efferocytosis”.

For `C=C1[C@@H](C)[C@H]2[C@H](Cc3ccccc3)NC(=O)[C@]23[C@H](OC(C)=O)/C=C/[C@@](C)(O)C(=O)[C@@H](C)C/C=C/[C@H]3[C@@H]1O` [cytochalasin D], the “efferocytosis by Slc7a11-deficient dendritic cells” value [2] was “abrogated”.

For `CCOc1ccccc1-n1c(C(C)N2CCN(C(=O)COc3ccc(Cl)cc3)CC2)nc2ccccc2c1=O` (stereo not drawn) [erastin], the dendritic cell viability (dendritic cells [3]) was “did not affect dendritic cell viability”.

`N[C@@H](CCC(=O)O)C(=O)O` [glutamate] was tested, and the “efferocytosis (apoptotic cell uptake) by dendritic cells” value (dendritic cells (BMDC)) was “boosted efferocytosis”.

B1: rGDF15: recombinant human GDF-15 (R&D Systems), member of the TGF-β superfamily (protein, UniProt Q99988 195-308, looked up)
Growth/differentiation factor …: ARARNGDHCPLGPGRCCRLHTVRASLEDLGWADWVLSPREVQVTMCIGACPSQFRAANMHAQIKTSLHRLKPDTVPAPCCVPASYNPMVLIQKTDTGVSLQTYDDLLAKDCHCI
In the case of B1, the “diabetic wound healing, substance alone” value (db/db mice) is reported as “significantly improved wound healing in the db/db mice” and the “diabetic wound healing, substance alone” value (db/db mice; listed as recombinant GDF15) is reported as “boosts healing”.
